Measured values as given in patent US9168317B2, “In vivo imaging method of mood disorders” (GE Healthcare Limited, priority 2010, dated 2015).
Where two headings read alike, the source gives them in different places.

How the values were obtained:
[1] = In vivo biodistribution method; conditions: for Brain 2 min / OB 30 min: adult male Wistar rats, 1-3 MBq via lateral tail vein; for Brain 2 min: 2 min after injection; for OB 30 min: olfactory bulb
Method: Imaging agents of the invention were tested in an in vivo biodistribution model.
Adult male Wistar rats (200-300 g) were injected with 1-3 MBq of test compound via the lateral tail vein. At 2, 10, 30 or 60 min (n=3) after injection, rats were euthanised and tissues or fluids were sampled for radioactive measurement on a gamma counter.

[2] = biological target: T1, Wistar rat heart PBR (Rattus norvegicus, UniProt P16257); test: In vitro potency assay: competition against 0.3 nM [3H]PK-11195 binding
T1 construct: from tissue; host or cells: Wistar rat heart
Method: Non-radioactive analogues of in vivo imaging agents of the invention were tested.
Each test compound (dissolved in 50 mM Tris-HCl, pH 7.4, 10 mM MgCl2 containing 1% DMSO) competed for binding to Wistar rat heart PBR against 0.3 nM [^3H] […] The reaction, was carried out in 50 mM Tris-HCl, pH 7.4 10 mM MgCl2 for 15 minutes at 25° C.

Compound | Brain 2 min [1] | OB 30 min ([1]; 30 min after injection) | Ki [2] | Ki ([2]; non-radioactive analogues, vs 0.3 nM [3H]PK-11195, 50 mM Tris-HCl pH 7.4, 10 mM MgCl2, 15 minutes at 25° C., read-out: Ki) | OB:Str 30 min ([1]; ratio olfactory bulb:striatum, 30 min after injection, Wistar rats)
CCN(CC)C(=O)C1CCCc2c1c1c(F)cccc1n2CC[18F] (centres unmarked) [compound 10] | 0.50 % ID/g | 0.51 % ID/g | – | – | –
O=C(C1CCCc2c1c1ccccc1n2CC[18F])N1CCCCC1 (centres unmarked) [compound 6] | – | – | 18.3 nM | – | –
CCN(CC)C(=O)C1CCCc2c1c1c(OC)cccc1n2CC[18F] (centres unmarked) [compound 5] | – | – | – | 1.47 nM | –
CN(Cc1ccccc1)C(=O)C1CCCc2c1c1ccccc1n2CC[18F] (centres unmarked) [compound 7] | 0.55 % ID/g | 0.34 % ID/g | 1.25 nM | – | 3.40
CCN(CC)C(=O)C1CCCc2c1c1cc(F)ccc1n2CC[18F] (centres unmarked) [compound 9] | 0.56 % ID/g | 0.41 % ID/g | 3.79 nM | – | –
